Residue numbers refer to the chain shown, from its start. Where a SMILES comes first, the peptide text is derived from it.
Legend:
[1] = molecular target: T1, hTAS1R2 + hTAS1R3 V779A^6.52 (Homo sapiens, UniProt Q7RTX0+Q8TE23, V779A); assay: Calcium response (FLIPR), hTAS1R3 mutant coexpressed with hTAS1R2; format: cell-based; details: variant V779A^6.52; for Emax: read-out: maximal signal (% of wt)
T1 construct: expressed in transfected cells; host or cells: HEK293T cells stably expressing G16Gust44
T1 sequence (Q8TE23 20-839): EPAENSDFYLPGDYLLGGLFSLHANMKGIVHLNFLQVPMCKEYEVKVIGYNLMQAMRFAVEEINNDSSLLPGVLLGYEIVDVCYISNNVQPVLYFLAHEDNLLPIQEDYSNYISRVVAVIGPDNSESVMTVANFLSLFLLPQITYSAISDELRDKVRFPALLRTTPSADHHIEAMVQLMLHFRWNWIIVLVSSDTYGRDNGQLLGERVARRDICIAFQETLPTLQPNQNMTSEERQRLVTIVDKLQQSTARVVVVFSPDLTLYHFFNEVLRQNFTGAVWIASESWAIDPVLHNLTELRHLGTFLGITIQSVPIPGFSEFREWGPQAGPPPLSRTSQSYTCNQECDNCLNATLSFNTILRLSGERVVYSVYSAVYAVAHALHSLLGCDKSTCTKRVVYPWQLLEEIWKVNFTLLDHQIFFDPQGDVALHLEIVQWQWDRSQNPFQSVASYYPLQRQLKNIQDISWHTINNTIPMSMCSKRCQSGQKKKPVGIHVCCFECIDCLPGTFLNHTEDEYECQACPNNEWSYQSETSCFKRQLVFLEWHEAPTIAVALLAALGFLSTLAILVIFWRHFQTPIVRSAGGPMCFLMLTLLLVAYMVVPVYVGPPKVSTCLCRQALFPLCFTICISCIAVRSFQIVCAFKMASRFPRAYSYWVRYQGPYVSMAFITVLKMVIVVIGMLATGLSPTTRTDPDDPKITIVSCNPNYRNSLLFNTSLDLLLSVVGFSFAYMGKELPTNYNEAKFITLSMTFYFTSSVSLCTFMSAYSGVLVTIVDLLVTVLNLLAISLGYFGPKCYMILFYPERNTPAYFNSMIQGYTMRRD
T1 sequence (Q7RTX0 21-852 V779A): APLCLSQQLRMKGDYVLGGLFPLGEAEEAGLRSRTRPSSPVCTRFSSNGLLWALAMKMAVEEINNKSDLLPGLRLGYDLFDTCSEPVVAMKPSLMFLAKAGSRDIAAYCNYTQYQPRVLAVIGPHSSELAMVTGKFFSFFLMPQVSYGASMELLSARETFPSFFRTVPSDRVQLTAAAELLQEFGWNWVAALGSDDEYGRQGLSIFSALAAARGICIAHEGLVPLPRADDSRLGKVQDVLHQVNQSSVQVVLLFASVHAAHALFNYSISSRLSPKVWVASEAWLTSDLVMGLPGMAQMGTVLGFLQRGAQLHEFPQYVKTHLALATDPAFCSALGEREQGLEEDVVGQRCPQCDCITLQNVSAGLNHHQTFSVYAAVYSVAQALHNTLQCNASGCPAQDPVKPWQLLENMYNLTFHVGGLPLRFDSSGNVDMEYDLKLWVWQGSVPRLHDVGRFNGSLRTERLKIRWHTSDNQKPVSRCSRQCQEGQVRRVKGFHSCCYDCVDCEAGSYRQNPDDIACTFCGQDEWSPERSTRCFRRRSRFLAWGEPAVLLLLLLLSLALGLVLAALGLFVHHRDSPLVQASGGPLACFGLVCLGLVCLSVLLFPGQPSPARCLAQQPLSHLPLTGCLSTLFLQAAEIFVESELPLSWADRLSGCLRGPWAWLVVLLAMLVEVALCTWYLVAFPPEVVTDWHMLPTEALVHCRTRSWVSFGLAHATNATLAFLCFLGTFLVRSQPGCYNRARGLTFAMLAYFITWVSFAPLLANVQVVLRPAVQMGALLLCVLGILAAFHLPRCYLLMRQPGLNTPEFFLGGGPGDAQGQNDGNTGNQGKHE
Method in brief: (§1)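 HEK293T cells stably expressing chimeric G16Gust44 were transiently transfected with C-terminally HSV-tagged hTAS1R2 and mutant hTAS1R3, then loaded 24 h later with Fluo4-AM for 1 h. Calcium mobilization after sweet-tastant application was read by FLIPR, mock-corrected and expressed as ΔF/F.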

[2] = molecular target: T2, hTAS1R2 + hTAS1R3 F778A^6.51 (Homo sapiens, UniProt Q7RTX0+Q8TE23, F778A); assay: as above; format: cell-based; details: variant F778A^6.51; for Emax: read-out: maximal signal (% of wt)
T2 construct: expressed in transfected cells; host or cells: HEK293T cells stably expressing G16Gust44
T2 sequence (Q8TE23 20-839): T1 sequence (Q8TE23 20-839)
T2 sequence (Q7RTX0 21-852 F778A): T1 sequence (Q7RTX0 21-852 V779A) with F758A, A759V
Method in brief: as §1

Row | SMILES | EC50 [1] [mM] | Emax [1] [%] | EC50 [2] [mM] | Emax [2] [%]
1 | COc1ccc(CCC(=O)c2c(O)cc(O[C@@H]3O[C@H](CO)[C@@H](O)[C@H](O)[C@H]3O[C@@H]3O[C@@H](C)[C@H](O)[C@@H](O)[C@H]3O)cc2O)cc1O [NHDC, neohesperidin dihydrochalcone] | 0.2 ± 0.1 | 88 ± 14 | 1.5 ± 0.4 | 50 ± 18
2 | COC(=O)[C@H](Cc1ccccc1)NC(=O)[C@@H](N)CC(=O)O [aspartame] (HELM PEPTIDE1{D.F.[CO[*:1]]}$$$$V2.0) | 1.2 ± 0.3 | 52 ± 10 | 1.2 ± 0.1 | 80 ± 80

From article PMC2099433, “The binding site for neohesperidin dihydrochalcone at the human sweet taste receptor” (BMC Structural Biology, 2007)
